Data as given in patent publication US20250304551A1 (SHANGHAI APEIRON THERAPEUTICS COMPANY LIMITED, priority 2022, published 2025).

What was measured:
[1] = target: T1, Human KIF18A (amino acid sequence 1-417) (Homo sapiens, UniProt Q8NI77); assay: Enzyme activity detection experiment (ADP-Glo, KIF18A with tubulin and ATP); format: biochemical; conditions: tubulin 60 μg/mL, ATP 25 μM, KIF18A protein 2.5 nM, 120 minutes at ambient temperature, ADP-Glo chemiluminescence
T1 construct: purchased Viva Biotech (Shanghai) Ltd
T1 sequence (Q8NI77 1-417): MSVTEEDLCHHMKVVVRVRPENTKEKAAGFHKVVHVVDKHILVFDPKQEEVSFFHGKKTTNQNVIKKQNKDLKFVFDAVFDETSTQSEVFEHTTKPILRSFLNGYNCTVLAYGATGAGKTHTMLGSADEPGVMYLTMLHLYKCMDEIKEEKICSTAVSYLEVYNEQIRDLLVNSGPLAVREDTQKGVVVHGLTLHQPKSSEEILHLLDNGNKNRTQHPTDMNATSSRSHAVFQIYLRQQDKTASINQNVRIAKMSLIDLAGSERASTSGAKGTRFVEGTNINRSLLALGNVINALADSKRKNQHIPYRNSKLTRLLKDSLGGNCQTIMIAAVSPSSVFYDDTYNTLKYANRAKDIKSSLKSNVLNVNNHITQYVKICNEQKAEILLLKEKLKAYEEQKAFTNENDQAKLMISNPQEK
T1 sequence (Q2XVP4 whole entry partner): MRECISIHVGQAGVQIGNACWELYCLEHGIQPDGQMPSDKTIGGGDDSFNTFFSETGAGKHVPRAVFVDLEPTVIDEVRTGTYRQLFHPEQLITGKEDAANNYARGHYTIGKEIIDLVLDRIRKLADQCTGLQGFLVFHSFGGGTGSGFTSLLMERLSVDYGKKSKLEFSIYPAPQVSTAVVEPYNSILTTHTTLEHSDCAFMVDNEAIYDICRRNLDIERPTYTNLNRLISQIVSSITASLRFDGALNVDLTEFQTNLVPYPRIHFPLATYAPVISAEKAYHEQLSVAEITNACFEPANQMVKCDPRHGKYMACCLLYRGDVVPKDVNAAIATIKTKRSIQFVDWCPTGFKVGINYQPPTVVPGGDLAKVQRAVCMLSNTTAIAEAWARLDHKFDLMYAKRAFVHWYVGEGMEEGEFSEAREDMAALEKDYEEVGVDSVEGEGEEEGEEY
T1 sequence (P02554 whole entry partner): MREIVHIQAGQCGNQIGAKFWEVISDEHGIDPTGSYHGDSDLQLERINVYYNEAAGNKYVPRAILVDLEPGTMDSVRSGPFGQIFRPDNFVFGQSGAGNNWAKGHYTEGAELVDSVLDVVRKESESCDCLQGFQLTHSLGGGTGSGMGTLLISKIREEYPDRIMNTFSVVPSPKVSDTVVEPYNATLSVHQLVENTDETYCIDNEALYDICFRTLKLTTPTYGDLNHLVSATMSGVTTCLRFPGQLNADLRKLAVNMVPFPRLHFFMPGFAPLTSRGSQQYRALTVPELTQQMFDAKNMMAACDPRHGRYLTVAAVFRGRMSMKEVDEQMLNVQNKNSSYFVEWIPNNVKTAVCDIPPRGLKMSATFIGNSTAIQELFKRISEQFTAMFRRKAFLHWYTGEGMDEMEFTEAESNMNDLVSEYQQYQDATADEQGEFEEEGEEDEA
Outline: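 KIF18A (2.5 nM) was incubated with tubulin (60 μg/mL as added), ATP (25 μM) and serially diluted compound for 120 min at ambient temperature. ADP formed was detected by ADP-Glo: reagent for 30 min, then detection reagent for 30 min in the dark, with chemiluminescence read-out.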

OVCAR3 cells = assay: Cell proliferation activity test, OVCAR3 (CyQUANT Direct); format: cell-based; conditions: Homo sapiens, OVCAR-3, 72 h, 3 days incubation, CyQUANT fluorescence detection, read-out: OVCAR-3 Cell Viability_IC50_nM
Outline: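 OVCAR3 cells seeded overnight, then exposed to compounds at 0-10 μM final (0.20% DMSO) for 3 days at 37° C. Cell number read by CyQUANT Direct fluorescence after 60 min at 37° C.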

HT29 cells = assay: CyQuant cell proliferation activity test, HT29; format: cell-based; conditions: Homo sapiens, HT-29, 72 h, HT29 2000 cells per well, 3 days incubation, initial concentration 3000 nM, IC50 by XLFIT, read-out: HT-29 Cell Viability_IC50_nM
Outline: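 HT29 cells (2000/well, RPMI-1640 with 10% FBS) were plated overnight, then exposed to compound for 3 days at 37 °C, 5% CO2. Dosing was 9 concentrations, 3-fold dilutions from 3000 nM, in 0.20% DMSO. Proliferation was read with CyQuant reagent after 1 h, and IC50 derived from the curves.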

| IC50 [1] [nM] | IC50 (OVCAR3 cells) [nM] | IC50 (HT29 cells) [nM] | Structure (SMILES) |
| --- | --- | --- | --- |
| 165 | 94 | 131 | CC(C)(O)c1cc(-c2cn(-c3ccc(NS(=O)(=O)CCO)cc3N3CCC4(CC3)CC4)nn2)nc(N2CCC(F)(F)CC2)n1 [Example 71, N-(4-(4-(2-(4,4-difluoropiperidin-1-yl)-6-(2-hydroxypropan-2-yl)pyrimidin-4-yl)-1H-1,2,3-triazol-1-yl)-3-(6-azaspiro[2.5]octan-6-yl)phenyl)-2-hydroxyethanesulfonamide] |
| 61 | 139 | 55 | COc1cc(-c2nnc(-c3ccc(NS(=O)(=O)CCO)cc3N3CCC4(CC3)CC4)o2)nc(N2CCC(F)(F)CC2)n1 [Example 20, N-(4-(5-(2-(4,4-difluoropiperidin-1-yl)-6-methoxypyrimidin-4-yl)-1,3,4-oxadiazol-2-yl)-3-(6-azaspiro[2.5]octan-6-yl)phenyl)-2-hydroxyethane-1-sulfonamide] |
| 437 | 26 | 34 | O=S(=O)(CCO)Nc1ccc(-n2cc(-c3cc(NCc4ccccn4)nc(N4CCC(F)(F)CC4)n3)nn2)c(N2CCC3(CC2)CC3)c1 [Example 59, N-(3-{6-azaspiro[2.5]octan-6-yl}-4-{4-[2-(4,4-difluoropiperidin-1-yl)-6-{[(pyridine-2-yl)methyl]amino}pyrimidin-4-yl]-1H-1,2,3-triazol-1-yl}phenyl)-2-hydroxyethane-1-sulfonamide] |
| 414 | 1330 | 1570 | Cc1cc(-c2cn(-c3ccc(NS(=O)(=O)CCO)cc3N3CCC4(CC3)CC4)nn2)cc(-c2cnn(C)c2)n1 [Example 39, 2-hydroxy-N-(4-(4-(2-methyl-6-(1-methyl-1H-pyrazol-4-yl)pyridin-4-yl)-1H-1,2,3-triazol-1-yl)-3-(6-azaspiro[2.5]octan-6-yl)phenyl)ethane-1-sulfonamide] |
| > 3000 | 1500 | > 3000 | Cc1cc(-c2nnn(-c3ccc(NS(=O)(=O)CCO)cc3N3CCC4(CC3)CC4)c2C)nc(N2CCC(F)(F)CC2)n1 [Example 69, N-(3-{6-azaspiro[2.5]octan-6-yl}-4-{4-[2-(4,4-difluoropiperidin-1-yl)-6-methylpyrimidin-4-yl]-5-methyl-1H-1,2,3-triazol-1-yl}phenyl)-2-hydroxyethane-1-sulfonamide] |
| 125 | 21 | 25 | Cc1cc(-c2cn(-c3ccc(NS(=O)(=O)[C@@H](C)CO)cc3N3CCC4(CC3)CC4)nn2)nc(N2CCC(F)(F)CC2)n1 [Example 84, (2S)—N-(3-{6-azaspiro[2.5]octan-6-yl}-4-{4-[2-(4,4-difluoropiperidin-1-yl)-6-methylpyrimidin-4-yl]-1H-1,2,3-triazol-1-yl}phenyl)-1-hydroxypropane-2-sulfonamide] |
| > 3000 | 766 | 811 | O=S(=O)(CCO)Nc1ccc(/C(F)=C/c2cc(N3CCC(F)(F)CC3)c3ncccc3c2)c(N2CCC3(CC2)CC3)c1 [Example 2, (Z)-N-(4-(2-(8-(4,4-difluoropiperidin-1-yl)quinolin-6-yl)-1-fluorovinyl)-3-(6-azasppiro[2.5]octan-6-yl)phenyl)-2-hydroxyethane-1-sulfonamide] |
| 630 | 1400 | > 3000 | Cc1cc(-c2nnc(-c3ccc(NS(=O)(=O)CCO)cc3N3CCC4(CC3)CC4)o2)nc(N2CCC(C)(O)CC2)n1 [Example 19, 2-hydroxy-N-(4-(5-(2-(4-hydroxy-4-methylpiperidin-1-yl)-6-methylpyrimidin-4-yl)-1,3,4-oxadiazol-2-yl)-3-(6-azaspiro[2.5]octan-6-yl)phenyl)ethane-1-sulfonamide] |
| 1280 | 472 | 444 | Cc1cc(-n2cnc(-c3ccc(NS(=O)(=O)CCO)cc3N3CCC4(CC3)CC4)c2)cc(N2CCC(F)(F)CC2)n1 [Example 13, N-(4-(1-(2-(4,4-difluoropiperidin-1-yl)-6-methylpyridin-4-yl)-1H-imidazol-4-yl)-3-(6-azaspiro[2.5]octan-6-yl)phenyl)-2-hydroxyethane-1-sulfonamide] |
| 383 | 116 | 127 | Cc1cc(-c2cn(-c3ccc(NS(=O)(=O)CCO)cc3N3CCC4(CC3)CC4)nn2)c(F)c(N2CCC(F)(F)CC2)n1 [Example 65, N-(4-(4-(2-(4,4-difluoropiperidin-1-yl)-3-fluoro-6-methylpyridin-4-yl)-1H-1,2,3-triazol-1-yl)-3-(6-azaspiro[2.5]octan-6-yl)phenyl)-2-hydroxyethane-1-sulfonamide] |
| 433 | 29 | 41 | O=S(=O)(CCO)Nc1ccc(-n2cc(-c3cc(NCc4cccnc4)nc(N4CCC(F)(F)CC4)n3)nn2)c(N2CCC3(CC2)CC3)c1 [Example 60, N-(3-{6-azaspiro[2.5]octan-6-yl}-4-{4-[2-(4,4-difluoropiperidin-1-yl)-6-{[(pyridine-3-yl)methyl]amino}pyrimidin-4-yl]-1H-1,2,3-triazol-1-yl}phenyl)-2-hydroxyethane-1-sulfonamide] |
| 255 | 55 | 61 | O=S(=O)(CCO)Nc1ccc(-c2nnc(-c3cc4cccnc4c(N4CCC(F)(F)CC4)c3F)o2)c(N2CCC3(CC2)CC3)c1 [Example 30, N-(4-(5-(8-(4,4-difluoropiperidin-1-yl)-7-fluoroquinolin-6-yl)-1,3,4-oxadiazol-2-yl)-3-(6-azaspiro[2.5]octan-6-yl)phenyl)-2-hydroxyethane-1-sulfonamide] |
| 131 | 24 | 22 | COc1cc(-c2cn(-c3ccc(NS(=O)(=O)CCO)cc3N3CCC4(CC3)CC4)nn2)nc(N2CCC(F)(F)CC2)n1 [Example 51, N-(4-(4-(2-(4,4-difluoropiperidin-1-yl)-6-methoxypyrimidin-4-yl)-1H-1,2,3-triazol-1-yl)-3-(6-azaspiro[2.5]octan-6-yl)phenyl)-2-hydroxyethanesulfonamide] |
| 177 | 27 | 27 | Cc1cc(-c2cn(-c3ccc(NS(=O)(=O)CCO)cc3N3CCC4(CC3)CC4)nn2)cc(N2CCC(F)(F)CC2)n1 [Example 64, N-(4-(4-(2-(4,4-difluoropiperidin-1-yl)-6-methylpyridin-4-yl)-1H-1,2,3-triazol-1-yl)-3-(6-azaspiro[2.5]octan-6-yl)phenyl)-2-hydroxyethane-1-sulfonamide] |
| 75 | 12 | 16 | O=S(=O)(CCO)Nc1ccc(-n2cc(-c3cc(N4CCC(F)(F)CC4)c4nnccc4c3)nn2)c(N2CCC3(CC2)CC3)c1 [Example 76, N-(4-(4-(8-(4,4-difluoropiperidin-1-yl)cinnolin-6-yl)-1H-1,2,3-triazol-1-yl)-3-(6-azaspiro[2.5]octan-6-yl)phenyl)-2-hydroxyethane-1-sulfonamide] |
| 61 | 36 | 40 | Cc1cc(-n2cc(-c3ccc(NS(=O)(=O)CCO)cc3N3CCC4(CC3)CC4)nn2)nc(N2CCC(F)(F)CC2)n1 [Example 89, N-(4-(1-(2-(4,4-difluoropiperidin-1-yl)-6-methylpyrimidin-4-yl)-1H-1,2,3-triazol-4-yl)-3-(6-azaspiro[2.5]octan-6-yl)phenyl)-2-hydroxyethanesulfonamide] |
